{"source": "patent US8075659B2", "about": "“Preparations with improved urease-inhibiting effect and urea-containing fertilizers containing the latter” (BASF SE, priority 2006, dated 2011)", "key": {"[1]": {"tested_on": "urease", "settings": "Table 10, granulated urea, soil in France; for % N loss based on fertilized N quantity: 10 days' incubation, inhibitor 0.125% (w/w) based on urea, 20° C.; for % N loss relative to NBTPT without mixing partner / % N loss relative to NPTPT without mixing partner: 10 days, NBTPT/NPTPT series", "protocol": "(§1) The efficacy of the (thio)phosphoric triamides, individually and in combination, was tested by a method based on that of Fenn & Kissel ((1973) Ammonia volatilization from surface applications of ammonium compounds on calcareous soils. Soil Sci. Soc. Am. J. 37, 855-859) for their effect in limiting ammonia volatilization from urea or urea-comprising fertilizers. Three different soils in which ammonia volatilization after urea fertilization is particularly pronounced were used. These soils are distinguished by relatively high pH values of >6.5 and/or low base buffering. […] 200 g of dry soil per incubation vessel were moistened with 5.4 ml of fully demineralized water, and 1.087 g of urea (corresponds to 500 mg of urea-N) were applied in the form of granules. If urea-comprising solutions were tested, the 200 g of soil were moistened with an aqueous urea-comprising solution comprising 1.630 g of urea (corresponds to 750 mg of urea-N), without or with urease inhibitor or combinations of these. The solution was applied dropwise over the entire soil surface, using a pipette. The amount of (thio)phosphoric triamides as individual substances or in combination in different proportions was always a uniform 0.125% (w/w) based on urea. The incubations were accomplished at 20° C. (18-22° C.) in a controlled-environment cabinet. The ammonia collected in the acid trap was determined quantitatively as ammonium using a continuous flow analyzer (from Bran+Luebbe), proceeding by methods with which the skilled worker is familiar."}, "[2]": {"tested_on": "urease", "settings": "granulated urea, Limburgerhof soil; for % N loss based on fertilized N quantity: 10 days' incubation, inhibitor 0.125% (w/w) based on urea, 20° C.; for % N loss relative to NBTPT without mixing partner / % N loss relative to NcHTPT without mixing partner / % N loss relative to NPenTPT without mixing partner / % N loss relative to NiBTPT without mixing partner / % N loss relative to NPTPT without mixing partner: 10 days", "protocol": "as §1"}, "[3]": {"tested_on": "urease", "settings": "Limburgerhof soil; for % N loss based on fertilized N quantity: 30% strength urea solution, 10 days' incubation, inhibitor 0.125% (w/w) based on urea, 20° C.; for % N loss relative to NBTPT without mixing partner / % N loss relative to NcHTPT without mixing partner / % N loss relative to NPenTPT without mixing partner / % N loss relative to NiBTPT without mixing partner / % N loss relative to NPTPT without mixing partner / % N loss relative to NNDBTPT without mixing partner / % N loss relative to NNDiTPT without mixing partner: 30% urea solution, 10 days", "protocol": "as §1"}, "[4]": {"tested_on": "urease", "settings": "Table 9, granulated urea, soil in Hanover; for % N loss based on fertilized N quantity: 10 days' incubation, inhibitor 0.125% (w/w) based on urea, 20° C.; for % N loss relative to NBTPT without mixing partner / % N loss relative to NPTPT without mixing partner: 10 days, NBTPT/NPTPT series", "protocol": "as §1"}, "[5]": {"settings": "Table 11, comparative experiment"}, "[6]": {"settings": "Table 12, comparative experiment"}, "[7]": {"settings": "Table 12, NBTPT/NNDiBTPT series"}}, "note": "Read-outs that look alike come from different tables or passages of the source.", "data": [{"compound": "CCCCNP(N)(N)=S", "note": "[NBTPT, N-n-butylthiophosphoric triamide]", "values": [{"measurement": "% N loss based on fertilized N quantity", "setting": "[1]", "result": 1.30, "unit": "%"}, {"measurement": "% N loss relative to NBTPT without mixing partner", "setting": "[1]", "result": 100, "unit": "%"}, {"measurement": "% N loss relative to NPTPT without mixing partner", "setting": "[1]", "result": 83, "unit": "%"}, {"measurement": "% N loss based on fertilized N quantity", "setting": "[2]; Table 1", "result": 1.54, "unit": "%"}, {"measurement": "% N loss relative to NBTPT without mixing partner", "setting": "[2]; Table 1, NBTPT/NcHTPT series", "result": 100, "unit": "%"}, {"measurement": "% N loss relative to NcHTPT without mixing partner", "setting": "[2]; Table 1, NBTPT/NcHTPT series", "result": 56, "unit": "%"}, {"measurement": "% N loss based on fertilized N quantity", "setting": "[2]; Table 2", "result": 1.54, "unit": "%"}, {"measurement": "% N loss relative to NBTPT without mixing partner", "setting": "[2]; Table 2, NBTPT/NPenTPT series", "result": 100, "unit": "%"}, {"measurement": "% N loss relative to NPenTPT without mixing partner", "setting": "[2]; Table 2, NBTPT/NPenTPT series", "result": 63, "unit": "%"}, {"measurement": "% N loss based on fertilized N quantity", "setting": "[2]; Table 3", "result": 1.54, "unit": "%"}, {"measurement": "% N loss relative to NBTPT without mixing partner", "setting": "[2]; Table 3, NBTPT/NiBTPT series", "result": 100, "unit": "%"}, {"measurement": "% N loss relative to NiBTPT without mixing partner", "setting": "[2]; Table 3, NBTPT/NiBTPT series", "result": 92, "unit": "%"}, {"measurement": "% N loss based on fertilized N quantity", "setting": "[2]; Table 4", "result": 1.54, "unit": "%"}, {"measurement": "% N loss relative to NBTPT without mixing partner", "setting": "[2]; Table 4, NBTPT/NPTPT series", "result": 100, "unit": "%"}, {"measurement": "% N loss relative to NPTPT without mixing partner", "setting": "[2]; Table 4, NBTPT/NPTPT series", "result": 96, "unit": "%"}, {"measurement": "% N loss based on fertilized N quantity", "setting": "[3]; Table 5", "result": 0.69, "unit": "%"}, {"measurement": "% N loss relative to NBTPT without mixing partner", "setting": "[3]; Table 5, NBTPT/NcHTPT series", "result": 100, "unit": "%"}, {"measurement": "% N loss relative to NcHTPT without mixing partner", "setting": "[3]; Table 5, NBTPT/NcHTPT series", "result": 62, "unit": "%"}, {"measurement": "% N loss based on fertilized N quantity", "setting": "[3]; Table 6", "result": 0.71, "unit": "%"}, {"measurement": "% N loss relative to NBTPT without mixing partner", "setting": "[3]; Table 6, NBTPT/NPenTPT series", "result": 100, "unit": "%"}, {"measurement": "% N loss relative to NPenTPT without mixing partner", "setting": "[3]; Table 6, NBTPT/NPenTPT series", "result": 63, "unit": "%"}, {"measurement": "% N loss based on fertilized N quantity", "setting": "[3]; Table 7", "result": 0.33, "unit": "%"}, {"measurement": "% N loss relative to NBTPT without mixing partner", "setting": "[3]; Table 7, NBTPT/NiBTPT series", "result": 100, "unit": "%"}, {"measurement": "% N loss relative to NiBTPT without mixing partner", "setting": "[3]; Table 7, NBTPT/NiBTPT series", "result": 61, "unit": "%"}, {"measurement": "% N loss based on fertilized N quantity", "setting": "[3]; Table 8", "result": 0.33, "unit": "%"}, {"measurement": "% N loss relative to NBTPT without mixing partner", "setting": "[3]; Table 8, NBTPT/NPTPT series", "result": 100, "unit": "%"}, {"measurement": "% N loss relative to NPTPT without mixing partner", "setting": "[3]; Table 8, NBTPT/NPTPT series", "result": 79, "unit": "%"}, {"measurement": "% N loss based on fertilized N quantity", "setting": "[3]; [5]", "result": 1.90, "unit": "%"}, {"measurement": "% N loss relative to NBTPT without mixing partner", "setting": "[3]; Table 11, NBTPT/NNDBTPT series", "result": 100, "unit": "%"}, {"measurement": "% N loss relative to NNDBTPT without mixing partner", "setting": "[3]; Table 11, NBTPT/NNDBTPT series", "result": 10, "unit": "%"}, {"measurement": "% N loss based on fertilized N quantity", "setting": "[3]; [6]", "result": 1.90, "unit": "%"}, {"measurement": "% N loss relative to NBTPT without mixing partner", "setting": "[3]; [7]", "result": 100, "unit": "%"}, {"measurement": "% N loss relative to NNDiTPT without mixing partner", "setting": "[3]; [7]", "result": 9, "unit": "%"}, {"measurement": "% N loss based on fertilized N quantity", "setting": "[4]", "result": 1.32, "unit": "%"}, {"measurement": "% N loss relative to NBTPT without mixing partner", "setting": "[4]", "result": 100, "unit": "%"}, {"measurement": "% N loss relative to NPTPT without mixing partner", "setting": "[4]", "result": 63, "unit": "%"}]}, {"compound": "CCCCN(CCCC)P(N)(N)=S", "note": "[NNDBTPT, N,N-di-n-butylthiophosphoric triamide]", "values": [{"measurement": "% N loss based on fertilized N quantity", "setting": "[3]; [5]", "result": 19.24, "unit": "%"}, {"measurement": "% N loss relative to NBTPT without mixing partner", "setting": "[3]; Table 11, NBTPT/NNDBTPT series", "result": 1013, "unit": "%"}, {"measurement": "% N loss relative to NNDBTPT without mixing partner", "setting": "[3]; Table 11, NBTPT/NNDBTPT series", "result": 100, "unit": "%"}]}, {"compound": "CC(C)CN(CC(C)C)P(N)(N)=S", "note": "[NNDiBTPT, N,N-di-isobutylthiophosphoric triamide]", "values": [{"measurement": "% N loss based on fertilized N quantity", "setting": "[3]; [6]", "result": 21.83, "unit": "%"}, {"measurement": "% N loss relative to NBTPT without mixing partner", "setting": "[3]; [7]", "result": 1149, "unit": "%"}, {"measurement": "% N loss relative to NNDiTPT without mixing partner", "setting": "[3]; [7]", "result": 100, "unit": "%"}]}, {"compound": "CCCNP(N)(N)=S", "note": "[NPTPT, N-n-propylthiophosphoric triamide]", "values": [{"measurement": "% N loss based on fertilized N quantity", "setting": "[1]", "result": 1.57, "unit": "%"}, {"measurement": "% N loss relative to NBTPT without mixing partner", "setting": "[1]", "result": 121, "unit": "%"}, {"measurement": "% N loss relative to NPTPT without mixing partner", "setting": "[1]", "result": 100, "unit": "%"}, {"measurement": "% N loss based on fertilized N quantity", "setting": "[2]; Table 4", "result": 1.60, "unit": "%"}, {"measurement": "% N loss relative to NBTPT without mixing partner", "setting": "[2]; Table 4, NBTPT/NPTPT series", "result": 104, "unit": "%"}, {"measurement": "% N loss relative to NPTPT without mixing partner", "setting": "[2]; Table 4, NBTPT/NPTPT series", "result": 100, "unit": "%"}, {"measurement": "% N loss based on fertilized N quantity", "setting": "[3]; Table 8", "result": 0.42, "unit": "%"}, {"measurement": "% N loss relative to NBTPT without mixing partner", "setting": "[3]; Table 8, NBTPT/NPTPT series", "result": 127, "unit": "%"}, {"measurement": "% N loss relative to NPTPT without mixing partner", "setting": "[3]; Table 8, NBTPT/NPTPT series", "result": 100, "unit": "%"}, {"measurement": "% N loss based on fertilized N quantity", "setting": "[4]", "result": 2.08, "unit": "%"}, {"measurement": "% N loss relative to NBTPT without mixing partner", "setting": "[4]", "result": 158, "unit": "%"}, {"measurement": "% N loss relative to NPTPT without mixing partner", "setting": "[4]", "result": 100, "unit": "%"}]}, {"compound": "CCCCCNP(N)(N)=S", "note": "[NPenTPT, N-pentylthiophosphoric triamide]", "values": [{"measurement": "% N loss based on fertilized N quantity", "setting": "[2]; Table 2", "result": 2.46, "unit": "%"}, {"measurement": "% N loss relative to NBTPT without mixing partner", "setting": "[2]; Table 2, NBTPT/NPenTPT series", "result": 130, "unit": "%"}, {"measurement": "% N loss relative to NPenTPT without mixing partner", "setting": "[2]; Table 2, NBTPT/NPenTPT series", "result": 100, "unit": "%"}, {"measurement": "% N loss based on fertilized N quantity", "setting": "[3]; Table 6", "result": 1.12, "unit": "%"}, {"measurement": "% N loss relative to NBTPT without mixing partner", "setting": "[3]; Table 6, NBTPT/NPenTPT series", "result": 158, "unit": "%"}, {"measurement": "% N loss relative to NPenTPT without mixing partner", "setting": "[3]; Table 6, NBTPT/NPenTPT series", "result": 100, "unit": "%"}]}, {"compound": "NP(N)(=S)NC1CCCCC1", "note": "[NcHTPT, N-cyclohexylthiophosphoric triamide]", "values": [{"measurement": "% N loss based on fertilized N quantity", "setting": "[2]; Table 1", "result": 2.77, "unit": "%"}, {"measurement": "% N loss relative to NBTPT without mixing partner", "setting": "[2]; Table 1, NBTPT/NcHTPT series", "result": 180, "unit": "%"}, {"measurement": "% N loss relative to NcHTPT without mixing partner", "setting": "[2]; Table 1, NBTPT/NcHTPT series", "result": 100, "unit": "%"}, {"measurement": "% N loss based on fertilized N quantity", "setting": "[3]; Table 5", "result": 1.11, "unit": "%"}, {"measurement": "% N loss relative to NBTPT without mixing partner", "setting": "[3]; Table 5, NBTPT/NcHTPT series", "result": 160, "unit": "%"}, {"measurement": "% N loss relative to NcHTPT without mixing partner", "setting": "[3]; Table 5, NBTPT/NcHTPT series", "result": 100, "unit": "%"}]}, {"compound": "CC(C)CNP(N)(N)=S", "note": "[NiBTPT, N-isobutylthiophosphoric triamide]", "values": [{"measurement": "% N loss based on fertilized N quantity", "setting": "[2]; Table 3", "result": 1.68, "unit": "%"}, {"measurement": "% N loss relative to NBTPT without mixing partner", "setting": "[2]; Table 3, NBTPT/NiBTPT series", "result": 109, "unit": "%"}, {"measurement": "% N loss relative to NiBTPT without mixing partner", "setting": "[2]; Table 3, NBTPT/NiBTPT series", "result": 100, "unit": "%"}, {"measurement": "% N loss based on fertilized N quantity", "setting": "[3]; Table 7", "result": 0.54, "unit": "%"}, {"measurement": "% N loss relative to NBTPT without mixing partner", "setting": "[3]; Table 7, NBTPT/NiBTPT series", "result": 164, "unit": "%"}, {"measurement": "% N loss relative to NiBTPT without mixing partner", "setting": "[3]; Table 7, NBTPT/NiBTPT series", "result": 100, "unit": "%"}]}]}
